Values quoted from earlier work, collected in patent US20030143648A1, “Enzyme activity profiles” (priority 2001, published 2003).

System: FAAH
Details: pH 8.0

CCCCCCCC/C=C\CCCCCCCC(N)=O [oleamide]
kcat of FAAH for oleamide: approximately 2 s −^1
